The record followed here is patent US6620325B2, “Purification process for cyclosporin” (Novartis AG, priority 1996, dated 2003).

The first series can be described thus: Distribution coefficient of cyclosporins between lighter organic phase and heavier aqueous phase (n-heptane/acetone/water). Format: physicochemical. The settings on record: conc. in lighter phase / conc. in heavier aqueous phase at 40° C.; 75% n-heptane/25% acetone vs 50% acetone/50% water. The method, then: The distribution coefficient is defined herein as the ratio of the concentration (in g/unit volume) of product in the lighter phase to the concentration (in g/unit volume) of product in the heavier aqueous phase at 40° C.
As for `C/C=C/C[C@@H](C)[C@@H](O)[C@H]1C(=O)N[C@@H](C)C(=O)N(C)CC(=O)N(C)[C@@H](CC(C)C)C(=O)N[C@@H](C(C)C)C(=O)N(C)[C@@H](CC(C)C)C(=O)N[C@@H](C)C(=O)N[C@H](C)C(=O)N(C)[C@@H](CC(C)C)C(=O)N(C)[C@@H](CC(C)C)C(=O)N(C)[C@@H](C(C)C)C(=O)N1C` [Cyclosporin B], the “Distribution coefficient (to one decimal place)” value is on record as 0.4.
In the case of `C/C=C/C[C@@H](C)[C@@H](O)[C@H]1C(=O)N[C@@H]([C@@H](C)O)C(=O)N(C)CC(=O)N(C)[C@@H](CC(C)C)C(=O)N[C@@H](C(C)C)C(=O)N(C)[C@@H](CC(C)C)C(=O)N[C@@H](C)C(=O)N[C@H](C)C(=O)N(C)[C@@H](CC(C)C)C(=O)N(C)[C@@H](CC(C)C)C(=O)N(C)[C@@H](C(C)C)C(=O)N1C` [Cyclosporin C], the “Distribution coefficient (to one decimal place)” value is 0.3.
The same measure, in the same setting: the value for `C/C=C/C[C@@H](C)[C@@H](O)[C@H]1C(=O)N[C@@H](C(C)C)C(=O)N(C)CC(=O)N(C)[C@@H](CC(C)C)C(=O)N[C@@H](C(C)C)C(=O)N(C)[C@@H](CC(C)C)C(=O)N[C@@H](C)C(=O)N[C@H](C)C(=O)N(C)[C@@H](CC(C)C)C(=O)N(C)[C@@H](CC(C)C)C(=O)N(C)[C@@H](C(C)C)C(=O)N1C` [Cyclosporin D] was 1.7; that for `CCCC[C@@H](C)[C@@H](O)[C@H]1C(=O)N[C@@H](CC)C(=O)N(C)CC(=O)N(C)[C@@H](CC(C)C)C(=O)N[C@@H](C(C)C)C(=O)N(C)[C@@H](CC(C)C)C(=O)N[C@@H](C)C(=O)N[C@H](C)C(=O)N(C)[C@@H](CC(C)C)C(=O)N(C)[C@@H](CC(C)C)C(=O)N(C)[C@@H](C(C)C)C(=O)N1C` [Cyclosporin Dihydro-A, dihydro-Cyclosporin A] was 1.0.
Same read-out and setting: the value for `C/C=C/C[C@@H](C)[C@@H](O)[C@H]1C(=O)N[C@@H](CCC)C(=O)N(C)CC(=O)N(C)[C@@H](CC(C)C)C(=O)N[C@@H](C(C)C)C(=O)N(C)[C@@H](CC(C)C)C(=O)N[C@@H](C)C(=O)N[C@H](C)C(=O)N(C)[C@@H](CC(C)C)C(=O)N(C)[C@@H](CC(C)C)C(=O)N(C)[C@@H](C(C)C)C(=O)N1C` [Cyclosporin G] was 1.3; that for `C/C=C/C[C@@H](C)[C@@H](O)[C@@H]1NC(=O)[C@H](C(C)C)N(C)C(=O)[C@H](CC(C)C)N(C)C(=O)[C@H](CC(C)C)N(C)C(=O)[C@@H](C)NC(=O)[C@H](C)NC(=O)[C@H](CC(C)C)N(C)C(=O)[C@H](C(C)C)NC(=O)[C@H](CC(C)C)N(C)C(=O)CN(C)C(=O)[C@H](CC)NC1=O` [Cyclosporin L] was 0.5.
Consider `C/C=C/C[C@@H](C)[C@@H](O)[C@H]1C(=O)N[C@@H](CC)C(=O)N(C)CC(=O)N(C)[C@@H](CC(C)C)C(=O)N[C@@H](C(C)C)C(=O)N[C@@H](CC(C)C)C(=O)N[C@@H](C)C(=O)N[C@H](C)C(=O)N(C)[C@@H](CC(C)C)C(=O)N(C)[C@@H](CC(C)C)C(=O)N(C)[C@@H](C(C)C)C(=O)N1C` [Cyclosporin U], for which the “Distribution coefficient (to one decimal place)” value turned out to be 0.6.

The nature of a further series: Distribution coefficient in n-heptane/isopropanol/water phase system. The settings on record: lighter phase about 90% n-heptane/10% isopropanol; heavier phase about 32% isopropanol/68% water. The format is physicochemical. From the text:
The present applicants have found an n-heptane/isopropanol/water system to be effective for purifying 33-epi-chloro-33-desoxyascomycin. In one embodiment, the following phase system is used to purify 33-epi-chloro-33-desoxyascomycin: the lighter phase comprises a mixture in weight-% of about 90% n-heptane, e.g. 89%, and about 10% isopropanol, e.g. 11%; the heavier hase comprises a mixture of about 32% isopropanol, e.g. 31%, and about 68% water, e.g. 69%.
The distribution coefficient is defined herein as the ratio of the concentration (in g/unit volume) of product in the lighter phase to the concentration (in g/unit volume) of product in the heavier aqueous phase at 40° C. The following distribution coefficients are obtained for cyclosporins between 75% n-heptane /25% acetone as lighter organic phase, and 50% acetone 50% water as heavier aqueous phase:
The distribution coefficient for 33-epi-chloro-33-desoxyascomycin is found to be around 7.6 using the above n-heptane/isopropanol/water phase system. The selectivity of ascomycin derivative side product to 33-epi-chloro-33-desoxyascomycin is found to be approximately 1.44.
Take `CC[C@@H]1/C=C(\C)C[C@H](C)C[C@H](OC)[C@H]2O[C@@](O)(C(=O)C(=O)N3CCCC[C@H]3C(=O)O[C@H](/C(C)=C/[C@@H]3CC[C@H](Cl)[C@H](OC)C3)[C@H](C)[C@@H](O)CC1=O)[C@H](C)C[C@@H]2OC` [33-epi-chloro-33-desoxyascomycin]: the Distribution coefficient entry is given as “around 7.6”.
